Read-outs that look alike come from different tables or passages of the source.
Tests used:
[1] = target: Cy5-labelled Mcl1 (amino acids 171-321) C286S protein (UniProtKB Q07820) (Homo sapiens (Human), UniProt Q07820, C286S); assay: Inhibition of Mcl-1 by the fluorescence quenching assay (Example A, Method B); assay type: binding
Outline: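 Cy5-labelled Mcl1 171-321 C286S (1 nM) quenched by TQ5WS-labelled PUMA peptide (10, 20 or 400 nM); displacement raises fluorescence (Ex 620/Em 680 nm). Buffer 10 mM HEPES, 150 mM NaCl, 0.05% Tween 20, pH 7.4, 5% DMSO; 2 h at room temperature, 11-point curves, IC50 converted to Ki (cKi/eKi).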

NCI-H929 cell lines = assay: In vitro cytotoxicity, CellTiter-Glo (CTG) assay (Example B, Method B); assay type: cell-based; conditions: NCI-H929 cells, 48 h incubation, read-out: C50
Outline: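 NCI-H929 cells exposed to an 11-point compound series from 10 mM DMSO stocks (top final 30 μM) for 48 h at 37° C., 5% CO2. Viability measured as ATP by CellTiter-Glo luminescence; C50 is the concentration giving 50% cellular viability.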

Chain of Cy5-labelled Mcl1 (amino acids 171-321) C286S protein (Q07820 171-321 C286S): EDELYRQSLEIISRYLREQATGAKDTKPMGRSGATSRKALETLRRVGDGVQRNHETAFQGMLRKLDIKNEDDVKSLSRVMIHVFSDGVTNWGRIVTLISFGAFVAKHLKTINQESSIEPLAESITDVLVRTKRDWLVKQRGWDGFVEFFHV

| SMILES | Ki [1] | Ki ([1]; Ki determined from IC50) | IC50 (NCI-H929 cell lines; Homo sapiens, NCI-H929, 48 h) | IC50 (NCI-H929 cell lines) |
| --- | --- | --- | --- | --- |
| C[C@@H](COc1ccnc2c1[C@H](C)CCC2)C[C@H]1Cc2cc3c(cc2[C@]12CC[C@@](Nc1cccc(Cl)c1)(C(=O)OCOP(=O)(OC(C)(C)C)OC(C)(C)C)CC2)OCO3 [Example 951, [(di-tert-butoxyphosphoryl)oxy]methyl (1r,4S,6′S)-4-(3-chloroanilino)-6′-[(2R)-2-methyl-3-{[(5R)-5-methyl-5,6,7,8-tetrahydroquinolin-4-yl]oxy}propyl]-6′,7′-dihydro-2′H-spiro[cyclohexane-1,5′-indeno[5,6-d][1,3]dioxole]-4-carboxylate] | 36.9 nM | – | 1790 nM | – |
| CC(c1ccc(O)cc1)c1ccc2c(c1)[C@]1(CC[C@@](Nc3cccc(Cl)c3)(C(=O)O)CC1)[C@@H](C[C@@H](C)COc1ccnc3c1[C@H](C)CCC3)C2 (stereo partly drawn) [Example 885, (1r,2′S,4S)-4-(3-chloroanilino)-6′-[1-(4-hydroxyphenyl)ethyl]-2′-[(2R)-2-methyl-3-{[(5R)-5-methyl-5,6,7,8-tetrahydroquinolin-4-yl]oxy}propyl]-2′,3′-dihydrospiro[cyclohexane-1,1′-indene]-4-carboxylic acid] | 2.03 nM | – | 341 nM | – |
| COCc1cc2c(cc1F)CN(C[C@@H](C)COc1ccnc3c1[C@H](C)CCC3)[C@]21CC[C@](Nc2cccc(Cl)c2)(C(=O)O)CC1 [Example 51, (1s,4S)-4-(3-chloroanilino)-5′-fluoro-6′-(methoxymethyl)-2′-[(2R)-2-methyl-3-{[(5R)-5-methyl-5,6,7,8-tetrahydroquinolin-4-yl]oxy}propyl]-2′,3′-dihydrospiro[cyclohexane-1,1′-isoindole]-4-carboxylic acid] | – | 0.0762 nM | 37.7 nM | – |
| C[C@@H](COc1ccnc2c1[C@H](C)CCC2)C[C@H]1Cc2cc3c(cc2[C@]12CC[C@@](Nc1cccc(Cl)c1)(C(=O)OCC(F)(F)F)CC2)OCO3 [Example 932, 2,2,2-trifluoroethyl (1r,4S,6′S)-4-(3-chloroanilino)-6′-[(2R)-2-methyl-3-{[(5R)-5-methyl-5,6,7,8-tetrahydroquinolin-4-yl]oxy}propyl]-6′,7′-dihydro-2′H-spiro[cyclohexane-1,5′-indeno[5,6-d][1,3]dioxole]-4-carboxylate] | 213 nM | – | 13600 nM | – |
| COc1cccc(-c2ccc3c(c2)[C@]2(CC[C@@](Nc4cccc(Cl)c4)(C(=O)O)CC2)[C@@H](C[C@@H](C)COc2ccnc4c2[C@H](C)CCC4)C3)c1 [Example 877, (1r,2′S,4S)-4-(3-chloroanilino)-6′-(3-methoxyphenyl)-2′-[(2R)-2-methyl-3-{[(5R)-5-methyl-5,6,7,8-tetrahydroquinolin-4-yl]oxy}propyl]-2′,3′-dihydrospiro[cyclohexane-1,1′-indene]-4-carboxylic acid] | 0.642 nM | – | 505 nM | – |
| C[C@@H]1CCCc2nccc(OC[C@@H](C[C@H]3Cc4ccccc4[C@]34CC[C@@](Nc3cccc(Cl)c3)(C(=O)O)CC4)c3ccccc3)c21 [Example 797, (1r,2′S,4S)-4-(3-chloroanilino)-2′-[(2S)-3-{[(5R)-5-methyl-5,6,7,8-tetrahydroquinolin-4-yl]oxy}-2-phenylpropyl]-2′,3′-dihydrospiro[cyclohexane-1,1′-indene]-4-carboxylic acid] | 0.259 nM | – | 251 nM | – |
| CC(=O)OC(C)OC(=O)[C@]1(Nc2cccc(Cl)c2)CC[C@@]2(CC1)c1cc3c(cc1C[C@@H]2C[C@@H](C)COc1ccnc2c1[C@H](C)CCC2)OCO3 (stereo partly drawn) [Example 939, 1-(acetyloxy)ethyl (1r,4S,6′S)-4-(3-chloroanilino)-6′-[(2R)-2-methyl-3-{[(5R)-5-methyl-5,6,7,8-tetrahydroquinolin-4-yl]oxy}propyl]-6′,7′-dihydro-2′H-spiro[cyclohexane-1,5′-indeno[5,6-d][1,3]dioxole]-4-carboxylate] | 1.7 nM | – | 157 nM | – |
| [2H]c1c([2H])c(Cl)c([2H])c(N[C@]2(C(=O)O)CC[C@]3(CC2)c2cc4c(cc2C[C@@H]3C[C@@H](C)COc2ccnc3c2[C@H](C)CCC3)OCO4)c1[2H] [Example 844, (1r,4S,6′S)-4-{[3-chloro(2H4)phenyl]amino}-6′-[(2R)-2-methyl-3-{[(5R)-5-methyl-5,6,7,8-tetrahydroquinolin-4-yl]oxy}propyl]-6′,7′-dihydro-2′H-spiro[cyclohexane-1,5′-indeno[5,6-d][1,3]dioxole]-4-carboxylic acid] | 0.0106 nM | – | 29.2 nM | – |

The next lines start with results.

| Ki [1] | Ki ([1]; Ki determined from IC50) | SMILES | IC50 (NCI-H929 cell lines; Homo sapiens, NCI-H929, 48 h) | IC50 (NCI-H929 cell lines) |
| --- | --- | --- | --- | --- |
| 0.0143 nM | – | C[C@@H](COc1ccnc2c1[C@H](C)CCC2)C[C@H]1Cc2cc3c(cc2[C@]12CC[C@@](Nc1cccc(Cl)c1)(C(=O)O)CC2)OC[C@H](C)O3 [Example 971, (1r,2′S,4S,7′S)-4-(3-chloroanilino)-2′-methyl-7′-[(2R)-2-methyl-3-{[(5R)-5-methyl-5,6,7,8-tetrahydroquinolin-4-yl]oxy}propyl]-2′,3′,7′,8′-tetrahydrospiro[cyclohexane-1,6′-indeno[5,6-b][1,4]dioxine]-4-carboxylic acid] | 41 nM | – |
| 0.00447 nM | – | C[C@@H](COc1ccnc2c1[C@H](C)CCC2)C[C@H]1Cc2cc3c(cc2[C@]12CC[C@@](Nc1cccc(Cl)c1)(C(=O)O)CC2)O[C@H](C)CCO3 [Example 987, (1r,4S,4′R,8′S)-4-(3-chloroanilino)-4′-methyl-8′-[(2R)-2-methyl-3-{[(5R)-5-methyl-5,6,7,8-tetrahydroquinolin-4-yl]oxy}propyl]-3′,4′,8′,9′-tetrahydro-2′H-spiro[cyclohexane-1,7′-indeno[5,6-b][1,4]dioxepine]-4-carboxylic acid] | 37.7 nM | – |
| 0.0442 nM | – | C[C@@H](COc1ccnc2c1[C@H](C)CCC2)C[C@H]1Cc2cc3c(cc2[C@]12CC[C@@](Nc1cccc(Cl)c1)(C(=O)O)CC2)OCC1(CC1)CO3 [Example 994, (1r,4S,8′S)-4-(3-chloroanilino)-8′-[(2R)-2-methyl-3-{[(5R)-5-methyl-5,6,7,8-tetrahydroquinolin-4-yl]oxy}propyl]-8′,9′-dihydro-2′H,4′H-dispiro[cyclohexane-1,7′-indeno[5,6-b][1,4]dioxepine-3′,1″-cyclopropane]-4-carboxylic acid] | 59.7 nM | – |
| 0.0267 nM | – | CC1Oc2cc3c(cc2O1)[C@]1(CC[C@@](Nc2cccc(Cl)c2)(C(=O)O)CC1)[C@@H](C[C@@H](C)COc1ccnc2c1[C@H](C)CCC2)C3 (single isomer, unassigned) [Example 966] | – | 48.3 nM |
| 3.58 nM | – | C[C@@H](COc1ccnc2c1[C@@H](C)CCC2)C[C@@H]1Cc2cc3c(cc2[C@]12CC[C@@](Nc1cccc(Cl)c1)(C(=O)O)CC2)OCO3 [Example 843, (1r,4R,6′R)-4-(3-chloroanilino)-6′-[(2R)-2-methyl-3-{[(5S)-5-methyl-5,6,7,8-tetrahydroquinolin-4-yl]oxy}propyl]-6′,7′-dihydro-2′H-spiro[cyclohexane-1,5′-indeno[5,6-d][1,3]dioxole]-4-carboxylic acid] | 1380 nM | – |
| 1.19 nM | – | CC(=O)c1cc(C)c2c(c1)[C@]1(CC[C@@](Nc3cccc(Cl)c3)(C(=O)O)CC1)C(C[C@@H](C)COc1ccnc3c1[C@H](C)CCC3)C2 (single isomer, unassigned) [Example 758] | – | 97.2 nM |
| 0.229 nM | – | CCOc1cc2c(cc1Br)C[C@H](C[C@@H](C)COc1ccnc3c1[C@H](C)CCC3)[C@]21CC[C@](Nc2cccc(Cl)c2)(C(=O)O)CC1 [Example 817, (1r,2′S,4S)-5′-bromo-4-(3-chloroanilino)-6′-ethoxy-2′-[(2R)-2-methyl-3-{[(5R)-5-methyl-5,6,7,8-tetrahydroquinolin-4-yl]oxy}propyl]-2′,3′-dihydrospiro[cyclohexane-1,1′-indene]-4-carboxylic acid] | 165 nM | – |
| 4.06 nM | – | C[C@@H](COc1ccnc2c1[C@H](C)CCC2)C[C@@H]1Cc2ccc(-c3ccsc3)cc2[C@]12CC[C@@](Nc1cccc(Cl)c1)(C(=O)O)CC2 [Example 879, (1r,2′R,4R)-4-(3-chloroanilino)-2′-[(2R)-2-methyl-3-{[(5R)-5-methyl-5,6,7,8-tetrahydroquinolin-4-yl]oxy}propyl]-6′-(thiophen-3-yl)-2′,3′-dihydrospiro[cyclohexane-1,1′-indene]-4-carboxylic acid] | 1360 nM | – |
| 0.386 nM | – | C[C@@H](COc1ccnc2c1[C@H](C)CCC2)C[C@H]1Cc2ccc(-c3ccsc3)cc2[C@]12CC[C@@](Nc1cccc(Cl)c1)(C(=O)O)CC2 [Example 878, (1r,2′S,4S)-4-(3-chloroanilino)-2′-[(2R)-2-methyl-3-{[(5R)-5-methyl-5,6,7,8-tetrahydroquinolin-4-yl]oxy}propyl]-6′-(thiophen-3-yl)-2′,3′-dihydrospiro[cyclohexane-1,1′-indene]-4-carboxylic acid] | 1110 nM | – |
| 0.0896 nM | – | C[C@@H](COc1ccnc2c1[C@H](C)CCC2)C[C@H]1Cc2cc3c(cc2[C@]12CC[C@@](Nc1cccc(Cl)c1)(C(=O)O)CC2)CCC3 [Example 852, (1r,2′S,4S)-4-(3-chloroanilino)-2′-[(2R)-2-methyl-3-{[(5R)-5-methyl-5,6,7,8-tetrahydroquinolin-4-yl]oxy}propyl]-3′,5′,6′,7′-tetrahydro-2′H-spiro[cyclohexane-1,1′-[s]indacene]-4-carboxylic acid] | 235 nM | – |
| 0.0188 nM | – | CC(O)c1ccc2c(c1)[C@]1(CC[C@@](Nc3cccc(Cl)c3)(C(=O)O)CC1)[C@@H](C[C@@H](C)COc1ccnc3c1[C@H](C)CCC3)C2 (single isomer, unassigned) [Example 860] | – | 93 nM |

From patent US20240150293A1, “SPIROCYCLOHEXANE DERIVATIVES, PHARMACEUTICAL COMPOSITIONS CONTAINING THEM AND THEIR USES AS ANTI-APOPTOTIC INHIBITORS” (LES LABORATOIRES SERVIER, priority 2021, published 2024)
